Results on two substances are retold here after PMC10200060, “Inhibition of DAMP actions in the tumoral microenvironment using lactoferrin-glycyrrhizin conjugate for glioblastoma therapy” (Biomaterials Research, 2023).

Assay [1] relates to U87MG. Put plainly: Wound-healing scratch (cell migration) assay. The format is cell-based, human. The conditions noted are these: HMGB1 0.1 μg mL^−1, 24 h. The procedure:
A wound-healing scratch assay was performed in U87MG to evaluate the effect of GL, Lf and Lf-GL treatment on the cancer cell migration. Cells were seeded in 100 mm-cell culture dishes, 2.0 × 10^6 cells per dish. After the cells were grown to 80% confluence, a scratch was made through the cell monolayer with a 200 μL pipet tip, and it was washed with PBS. Photographs (4 ×) were taken in each of three different scratch areas, and their location on the dish was marked. GL (50 × 10^–6 M), Lf (5 × 10^–6 M) or Lf-GL (1 × 10^–6 M) dissolved in serum-free medium were added to cells with or without HMGB1 protein (0.1 μg mL^−1). Then, cells were incubated for 24 h, and the same areas were re-photographed. Migration distances were examined using the scale bar.

Assay [2] deals with HUVEC. Put plainly: Capillary tube formation assay. The format is cell-based, human. To be noted: HMGB1 (+) control vs HMGB1 (-) control, 24 h. As for the experimental part:
A 24-well plate was coated with of Matrigel® (200 μL, Corning, NY, USA) and was incubated for 30 min in 37℃ incubators. HUVECs were seeded upon a coated Matrigel® 24-well plate (seeding density: 5.0 × 10^4 cells per well). Subsequently, cells were treated with GL (50 × 10^–6 M), Lf (5 × 10^–6 M) or Lf-GL (1 × 10^–6 M) and incubated for 24 h. Then, Calcein AM was added to each well, and the formation of tubes was observed using fluorescence microscopy. These tubes were quantified using Image J.

Assay [3] deals with HUVEC. Put plainly: HMGB1-mediated HUVEC proliferation (CCK-8). Type of assay: cell-based, human. The procedure:
(§1) Cell viability was determined using a cell counting kit-8 (CCK-8). U87MG and HUVECs (seeding density: 0.75 × 10^4 cells per well) in 96-well culture plates were treated with GL, Lf, or Lf-GL (25 to 200 × 10^–6 M of GL equivalent concentration) and were incubated for different periods of time (24, 48, and 72 h). After washing with PBS, they were treated with a cell culture medium containing a CCK-8 assay kit (Abbkine) and were incubated at 37 °C and 5% CO2 for 2 h. Then, absorbance was measured at 450 nm in a micro-plate reader (VLBL00D0, Thermo Fisher Scientific). Results were quantified using Sigma Plot (Systat Software, USA). To determine the effect of extracellular HMGB1 in GBM and endothelial cell proliferation, U87MG and HUVECs were seeded in 96-well culture plates (seeding density: 0.75 × 10^4 cells per well) and GL, Lf, or Lf-GL (50 × 10^–6 M GL equivalent concentration) were added to cells with or without HMGB1 protein (U87MG: 0.1 μg mL^−1, and HUVEC: 1 μg mL^−1). Cells were incubated for different periods of time (24, 48, and 72 h).

The next assay deals with ERK phosphorylation. Put plainly: Western blot of phospho-ERK/ERK in HUVEC. The format is cell-based, human. The conditions noted are these: 24 h of treatment with HMGB1. As for the experimental part: Total cellular protein concentration was determined using a BCA Protein Assay Kit (Pierce, Rockford, IL, USA). Equal amounts of protein from cell lysates were loaded onto a 12% sodium dodecyl sulfate–polyacrylamide gel. After electrophoresis, proteins were transferred to polyvinylidene fluoride membranes blocked with 5% bovine serum albumin for 1 h at room temperature and were diluted 1:500 with the indicated primary antibodies (rabbit anti-ERK1/2, anti-phospho-ERK1 and β-actin antibodies [Cell Signaling Technology, INC.]). Then, the membrane was washed 3 times for 15 min with tris-buffered saline containing Tween 20 and was incubated with HRP-conjugated secondary antibody for 1 h at room temperature. After washing three times for another 15 min with Tris-buffered saline with Tween 20, immune complexes were detected with an enriched chemiluminescent reagent (EZ-Western Lumi Femto, DoGen, South Korea) and staining was quantified by densitometry analysis using an Alpha Imager 2200.

For assay [4], the system named is U87MG. Put plainly: HMGB1-mediated GBM cell proliferation (CCK-8). The format is cell-based, human. The procedure:
as §1

Another assay deals with rat aortic rings. Put plainly: Aorta ring assay (ex vivo). The conditions noted are these: VEGF 25 ng mL^−1 positive control, 14 days. As for the experimental part:
An aorta ring assay was conducted to confirm the anti-angiogenesis effect of Lf-GL ex vivo. A 48-well plate was coated with of Matrigel® (100 μL) and was incubated for 30 min or more in 37℃ incubators. In the meantime, thoracic aortas of 7-week-old male SD rats were excised. Then, the fat layer and outer membrane were removed, and rings approximately 1 mm in length were prepared. The prepared aortic rings were seeded on a coated Matrigel® of 48-well plate and were covered with Matrigel®. (100 μL) Subsequently, the aortic ring was treated with a control (with or without 25 ng mL^−1 of VEGF) or different concentrations of Lf-GL complex. Medium was changed once every two days. Fourteen days after treatment, optical images of sprouting microvessels were obtained using microscopy magnification (× 40 or × 100). Sprouting microvessel area was quantified using Image J and Sigma Plot.
Fig. S14. Significant inhibitory effect of Lf-GL in aortic ring angiogenesis. Optical images of vessel regression in aortic ring with Lf-GL treatment. Aortic ring assay was carried out in 48-well plate coated with Matrigel. VEGF-non treated control represents that aortic ring incubated with normal medium. VEGF-treated control represents that aortic ring incubated with 25 ng mL^-1 VEGF-conditioned medium. […]

As for “HMGB1: High-mobility group box-1 protein added to cells as stimulus”, in the assay with U87MG [1], the “Migration distance more than HMGB1-nontreated cell” value is 121.3 ± 42.8 μm. In addition, in the assay with HUVEC [2], the “Increase of newly generated micro-vessels (tube number)” value is 21.0 ± 2.1%. Moreover, the “Angiogenic potential (viability) of HUVEC vs control” value in the assay with HUVEC [3] (HMGB1 1 μg mL^−1, day 1) is on record as 108.2 ± 7.9%; in the assay with HUVEC [3] (HMGB1 1 μg mL^−1, day 2), 137.9 ± 12.3%; with HUVEC [3] (HMGB1 1 μg mL^−1, day 3), 169.8 ± 18.1%. In the assay on ERK phosphorylation, the “Increase of p-ERK level compared to non-treatment” value is reported as 2.3 times. Moreover, the “Tumor growth compared to controls not treated with HMGB1” value in the assay with U87MG [4] (HMGB1 0.1 μg mL^−1, day 1) was 110.7 ± 8.2%; in the assay with U87MG [4] (HMGB1 0.1 μg mL^−1, day 2), 133.4 ± 1.3%; with U87MG [4] (HMGB1 0.1 μg mL^−1, day 3) it was 140.7 ± 5.2%.

VEGF [reference compound]: the “Increase of outgrowth of endothelial tubules” value in the assay on rat aortic rings was 51.1 ± 105.2%.
